The results in this text go back to ChEMBL document CHEMBL3779856, “Synthesis and antiproliferative activity of 6,7-disubstituted-4-phenoxyquinoline derivatives bearing the 2-oxo-4-chloro-1,2-dihydroquinoline-3-carboxamide moiety” (Bioorg Med Chem Lett, 2016).

For orientation: IC50 means the concentration at which inhibition is half-maximal.

Test [1] has as its system HT-29. Put plainly: cells. The settings on record: Homo sapiens, HT-29, 72 h.
Description: Cytotoxicity against human HT-29 cells assessed as cell growth inhibition after 72 hrs by MTT assay
Test [2] in a line: cells. The note with it: Homo sapiens, NCI-H460, 72 h.
Description: Cytotoxicity against human H460 cells assessed as cell growth inhibition after 72 hrs by MTT assay
A short description of test [3]: Cytotoxicity against human U87MG cells assessed as cell growth inhibition after 72 hrs by MTT assay. The note with it: U-87 MG. The class given is functional, cell-based, U-87MG ATCC. (In general: Formazan colour is commonly taken as a measure of viable cells.)
Test [4] in a line: cells. The settings on record: Homo sapiens, MKN-45, 72 h.
Description: Cytotoxicity against human MKN45 cells assessed as cell growth inhibition after 72 hrs by MTT assay
Test [5] deals with A549. Put plainly: Cytotoxicity against human A549 cells assessed as cell growth inhibition after 72 hrs by MTT assay. Format: functional, cell-based. The note with it: A549, 72 h.
In test [6] the target is Hepatocyte growth factor receptor (Homo sapiens, UniProt P08581). Description: Inhibition of cMet (unknown origin) using poly (Glu, Tyr) 4:1 as substrate after 30 mins by HTRF assay.
Chain of Hepatocyte growth factor receptor (P08581 whole entry): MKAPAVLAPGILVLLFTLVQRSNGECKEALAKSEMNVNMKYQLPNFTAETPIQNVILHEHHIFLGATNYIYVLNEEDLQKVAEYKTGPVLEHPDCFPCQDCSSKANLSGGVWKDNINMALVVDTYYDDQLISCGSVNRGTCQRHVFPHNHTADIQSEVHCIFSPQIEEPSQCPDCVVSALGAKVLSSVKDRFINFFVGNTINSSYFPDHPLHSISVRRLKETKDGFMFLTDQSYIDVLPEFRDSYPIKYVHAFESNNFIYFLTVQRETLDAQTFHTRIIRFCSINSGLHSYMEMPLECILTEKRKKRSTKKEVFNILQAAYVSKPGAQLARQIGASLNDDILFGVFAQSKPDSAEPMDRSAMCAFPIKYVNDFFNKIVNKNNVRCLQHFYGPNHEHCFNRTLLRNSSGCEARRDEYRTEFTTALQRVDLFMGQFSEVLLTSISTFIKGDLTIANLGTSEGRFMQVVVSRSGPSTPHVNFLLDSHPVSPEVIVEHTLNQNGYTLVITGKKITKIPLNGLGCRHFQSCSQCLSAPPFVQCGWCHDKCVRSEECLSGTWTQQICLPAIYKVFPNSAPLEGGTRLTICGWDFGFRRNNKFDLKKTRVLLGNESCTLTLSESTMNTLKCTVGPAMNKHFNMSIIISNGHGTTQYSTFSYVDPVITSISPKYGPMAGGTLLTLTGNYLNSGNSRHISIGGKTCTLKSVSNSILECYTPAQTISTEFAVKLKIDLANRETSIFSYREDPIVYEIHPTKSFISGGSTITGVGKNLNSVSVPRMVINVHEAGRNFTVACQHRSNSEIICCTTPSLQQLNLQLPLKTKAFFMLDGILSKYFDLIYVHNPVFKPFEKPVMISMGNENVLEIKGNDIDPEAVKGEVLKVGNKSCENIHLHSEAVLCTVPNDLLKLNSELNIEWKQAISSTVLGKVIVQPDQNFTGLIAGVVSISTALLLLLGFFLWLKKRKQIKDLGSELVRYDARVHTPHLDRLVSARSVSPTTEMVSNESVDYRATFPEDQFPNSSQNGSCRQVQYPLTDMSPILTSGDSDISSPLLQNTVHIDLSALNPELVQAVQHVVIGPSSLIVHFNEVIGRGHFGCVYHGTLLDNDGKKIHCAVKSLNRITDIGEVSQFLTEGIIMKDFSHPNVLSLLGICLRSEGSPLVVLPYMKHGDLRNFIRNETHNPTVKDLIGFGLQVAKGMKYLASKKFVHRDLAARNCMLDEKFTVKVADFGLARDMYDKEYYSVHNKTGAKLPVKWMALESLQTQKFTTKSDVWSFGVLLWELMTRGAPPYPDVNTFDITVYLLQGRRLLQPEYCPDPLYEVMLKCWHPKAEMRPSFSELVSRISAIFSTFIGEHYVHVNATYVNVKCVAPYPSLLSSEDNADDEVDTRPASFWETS
Test [7] concerns the target T1, Receptor-type tyrosine-protein kinase FLT3 (Homo sapiens, UniProt P36888).
T1 sequence (P36888 whole entry): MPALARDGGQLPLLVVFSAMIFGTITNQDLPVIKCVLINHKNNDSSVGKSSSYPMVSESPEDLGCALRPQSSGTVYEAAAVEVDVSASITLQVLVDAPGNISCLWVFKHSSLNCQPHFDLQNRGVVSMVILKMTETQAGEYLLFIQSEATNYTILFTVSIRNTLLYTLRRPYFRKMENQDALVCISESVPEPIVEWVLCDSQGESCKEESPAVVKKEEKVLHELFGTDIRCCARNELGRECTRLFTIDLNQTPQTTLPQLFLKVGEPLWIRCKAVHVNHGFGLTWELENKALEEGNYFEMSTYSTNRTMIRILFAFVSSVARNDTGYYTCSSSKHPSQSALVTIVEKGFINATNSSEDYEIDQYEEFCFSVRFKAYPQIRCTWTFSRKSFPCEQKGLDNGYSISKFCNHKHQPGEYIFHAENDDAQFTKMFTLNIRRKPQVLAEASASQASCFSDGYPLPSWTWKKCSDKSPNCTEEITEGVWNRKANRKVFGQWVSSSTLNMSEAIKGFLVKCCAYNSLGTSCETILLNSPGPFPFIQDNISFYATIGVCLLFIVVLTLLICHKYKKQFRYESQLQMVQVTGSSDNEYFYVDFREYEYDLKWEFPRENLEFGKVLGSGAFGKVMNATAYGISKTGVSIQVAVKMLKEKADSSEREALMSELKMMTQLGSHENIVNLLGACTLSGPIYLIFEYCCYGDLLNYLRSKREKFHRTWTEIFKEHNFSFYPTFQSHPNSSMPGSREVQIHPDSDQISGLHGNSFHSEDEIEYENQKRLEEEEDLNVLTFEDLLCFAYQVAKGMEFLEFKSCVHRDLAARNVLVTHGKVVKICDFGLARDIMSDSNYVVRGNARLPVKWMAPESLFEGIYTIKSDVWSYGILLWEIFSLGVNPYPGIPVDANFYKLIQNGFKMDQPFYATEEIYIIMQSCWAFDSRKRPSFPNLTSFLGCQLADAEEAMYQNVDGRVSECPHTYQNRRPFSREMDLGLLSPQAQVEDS
Put plainly: Inhibition of FLT3 (unknown origin) using poly (Glu, Tyr) 4:1 as substrate after 30 mins by HTRF assay. A general note: TR-FRET usually uses a lanthanide donor and a delayed reading to cut background.

Test [8] concerns U-87 MG. Put plainly: Potency index, ratio of foretinib IC50 to compound IC50 for human U87MG cells. The class given is functional, U-87MG ATCC.
Test [9] has as its target Platelet-derived growth factor receptor beta (Homo sapiens, UniProt P09619). Put plainly: Inhibition of PDGFRbeta (unknown origin) using poly (Glu, Tyr) 4:1 as substrate after 30 mins by HTRF assay.
Test [10] has as its target Epidermal growth factor receptor (Homo sapiens, UniProt P00533). Put plainly: Inhibition of EGFR (unknown origin) using poly (Glu, Tyr) 4:1 as substrate after 30 mins by HTRF assay.
Test [11] has as its target Vascular endothelial growth factor receptor 2 (Homo sapiens, UniProt P35968). Description: Inhibition of VEGFR-2 (unknown origin) using poly (Glu, Tyr) 4:1 as substrate after 30 mins by HTRF assay.
In test [12] the target is Mast/stem cell growth factor receptor Kit (Homo sapiens, UniProt P10721). Description: Inhibition of cKIT (unknown origin) using poly (Glu, Tyr) 4:1 as substrate after 30 mins by HTRF assay.
Chain of Mast/stem cell growth factor receptor Kit (P10721 whole entry): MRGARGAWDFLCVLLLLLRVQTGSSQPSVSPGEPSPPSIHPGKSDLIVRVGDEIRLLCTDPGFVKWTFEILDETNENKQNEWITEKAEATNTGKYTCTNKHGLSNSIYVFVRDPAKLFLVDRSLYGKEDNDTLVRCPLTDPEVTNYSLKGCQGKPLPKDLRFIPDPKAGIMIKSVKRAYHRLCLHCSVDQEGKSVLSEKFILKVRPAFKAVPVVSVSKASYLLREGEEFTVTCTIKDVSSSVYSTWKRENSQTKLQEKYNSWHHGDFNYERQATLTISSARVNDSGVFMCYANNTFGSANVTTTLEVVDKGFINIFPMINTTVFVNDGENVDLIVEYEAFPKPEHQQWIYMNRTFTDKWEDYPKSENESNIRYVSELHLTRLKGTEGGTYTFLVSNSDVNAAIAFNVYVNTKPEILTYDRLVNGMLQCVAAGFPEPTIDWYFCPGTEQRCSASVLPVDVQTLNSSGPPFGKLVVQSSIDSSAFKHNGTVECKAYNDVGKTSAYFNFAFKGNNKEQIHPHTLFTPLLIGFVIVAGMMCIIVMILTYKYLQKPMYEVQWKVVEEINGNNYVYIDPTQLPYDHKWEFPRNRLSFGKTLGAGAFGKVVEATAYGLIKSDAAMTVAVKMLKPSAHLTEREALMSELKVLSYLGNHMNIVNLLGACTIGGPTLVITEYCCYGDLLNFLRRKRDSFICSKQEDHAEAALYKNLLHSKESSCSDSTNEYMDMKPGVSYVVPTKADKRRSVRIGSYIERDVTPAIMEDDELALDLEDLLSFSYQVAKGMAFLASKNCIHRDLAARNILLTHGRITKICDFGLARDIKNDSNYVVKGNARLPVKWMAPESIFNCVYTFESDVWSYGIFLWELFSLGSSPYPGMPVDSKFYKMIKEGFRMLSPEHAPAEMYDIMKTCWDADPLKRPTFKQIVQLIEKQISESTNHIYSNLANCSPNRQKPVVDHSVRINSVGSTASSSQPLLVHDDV
A short description of test [13]: Potency index, ratio of foretinib IC50 to compound IC50 for human H460 cells. Format: functional.
The subject of test [14] is HT-29. Description: Potency index, ratio of foretinib IC50 to compound IC50 for human HT-29 cells. Format: functional.

Chain of Vascular endothelial growth factor receptor 2 (P35968 whole entry): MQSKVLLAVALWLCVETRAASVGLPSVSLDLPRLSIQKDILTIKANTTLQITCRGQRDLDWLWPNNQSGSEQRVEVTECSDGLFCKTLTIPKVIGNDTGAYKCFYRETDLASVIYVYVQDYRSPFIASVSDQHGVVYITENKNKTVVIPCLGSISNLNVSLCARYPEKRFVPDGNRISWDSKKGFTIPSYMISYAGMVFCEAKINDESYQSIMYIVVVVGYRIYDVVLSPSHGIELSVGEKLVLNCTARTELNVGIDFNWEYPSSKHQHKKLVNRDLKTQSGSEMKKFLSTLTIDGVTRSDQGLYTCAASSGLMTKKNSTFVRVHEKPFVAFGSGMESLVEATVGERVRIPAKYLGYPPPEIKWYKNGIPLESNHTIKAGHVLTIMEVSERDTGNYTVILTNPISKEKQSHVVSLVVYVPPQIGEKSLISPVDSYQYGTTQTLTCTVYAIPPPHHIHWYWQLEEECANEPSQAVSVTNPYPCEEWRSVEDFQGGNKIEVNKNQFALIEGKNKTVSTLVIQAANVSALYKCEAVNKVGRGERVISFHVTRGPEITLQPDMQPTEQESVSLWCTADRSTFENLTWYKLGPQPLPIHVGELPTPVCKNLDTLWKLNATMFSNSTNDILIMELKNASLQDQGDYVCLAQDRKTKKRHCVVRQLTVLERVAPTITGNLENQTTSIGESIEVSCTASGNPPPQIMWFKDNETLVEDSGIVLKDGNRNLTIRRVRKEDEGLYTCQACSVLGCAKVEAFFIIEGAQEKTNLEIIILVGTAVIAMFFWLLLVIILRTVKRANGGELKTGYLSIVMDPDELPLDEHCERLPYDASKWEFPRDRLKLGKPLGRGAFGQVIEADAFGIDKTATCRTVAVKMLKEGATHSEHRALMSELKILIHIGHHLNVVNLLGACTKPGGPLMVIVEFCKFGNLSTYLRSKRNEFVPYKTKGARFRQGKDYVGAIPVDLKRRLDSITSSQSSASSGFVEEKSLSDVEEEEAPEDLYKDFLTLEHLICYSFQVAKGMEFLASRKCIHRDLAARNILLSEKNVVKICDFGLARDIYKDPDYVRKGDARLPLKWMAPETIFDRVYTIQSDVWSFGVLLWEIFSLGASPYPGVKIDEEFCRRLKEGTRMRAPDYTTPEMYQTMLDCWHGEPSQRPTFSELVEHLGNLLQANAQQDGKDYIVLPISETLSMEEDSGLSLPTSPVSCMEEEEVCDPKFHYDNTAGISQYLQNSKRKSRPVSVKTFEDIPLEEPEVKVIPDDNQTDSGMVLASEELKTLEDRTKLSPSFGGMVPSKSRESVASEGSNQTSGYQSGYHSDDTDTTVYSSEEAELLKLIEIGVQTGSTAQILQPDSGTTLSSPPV
Chain of Epidermal growth factor receptor (P00533 whole entry): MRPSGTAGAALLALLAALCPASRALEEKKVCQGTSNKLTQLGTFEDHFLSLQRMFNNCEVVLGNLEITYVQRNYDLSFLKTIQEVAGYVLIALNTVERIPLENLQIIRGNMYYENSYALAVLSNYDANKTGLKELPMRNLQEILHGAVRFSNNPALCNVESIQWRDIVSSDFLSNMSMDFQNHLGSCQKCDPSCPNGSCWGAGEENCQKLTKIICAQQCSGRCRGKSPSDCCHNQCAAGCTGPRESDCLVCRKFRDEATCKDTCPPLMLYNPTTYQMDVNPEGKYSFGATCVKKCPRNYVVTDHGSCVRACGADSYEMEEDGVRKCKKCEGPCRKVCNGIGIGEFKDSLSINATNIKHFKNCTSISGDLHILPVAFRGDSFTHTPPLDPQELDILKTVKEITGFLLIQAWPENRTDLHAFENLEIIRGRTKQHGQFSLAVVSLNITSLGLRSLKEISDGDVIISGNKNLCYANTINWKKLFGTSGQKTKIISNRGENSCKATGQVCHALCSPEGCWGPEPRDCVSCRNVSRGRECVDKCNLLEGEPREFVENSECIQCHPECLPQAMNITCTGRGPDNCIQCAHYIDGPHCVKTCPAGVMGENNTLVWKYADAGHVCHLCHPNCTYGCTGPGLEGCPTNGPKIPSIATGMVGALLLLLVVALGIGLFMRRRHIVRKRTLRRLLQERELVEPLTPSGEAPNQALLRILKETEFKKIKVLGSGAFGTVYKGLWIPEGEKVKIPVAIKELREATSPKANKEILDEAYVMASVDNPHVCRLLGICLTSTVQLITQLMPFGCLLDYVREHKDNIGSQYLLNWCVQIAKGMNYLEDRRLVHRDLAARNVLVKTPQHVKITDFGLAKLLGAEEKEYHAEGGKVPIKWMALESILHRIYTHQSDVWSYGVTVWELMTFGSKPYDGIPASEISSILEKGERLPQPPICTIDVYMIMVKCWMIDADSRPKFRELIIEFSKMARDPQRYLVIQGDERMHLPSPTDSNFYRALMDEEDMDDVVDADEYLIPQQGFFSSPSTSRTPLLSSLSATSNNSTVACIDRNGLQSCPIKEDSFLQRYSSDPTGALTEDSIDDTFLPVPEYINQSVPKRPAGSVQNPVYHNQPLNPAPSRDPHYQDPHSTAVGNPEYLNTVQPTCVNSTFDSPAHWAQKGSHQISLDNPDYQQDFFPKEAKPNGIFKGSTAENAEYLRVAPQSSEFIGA

As to `COc1cc2c(Oc3ccc(NC(=O)c4c(Cl)c5ccccc5n(-c5ccc(C)cc5)c4=O)cc3F)ccnc2cc1OCCCN1CCOCC1`, the IC50 was 390 nM in test [1]; 850 nM in test [2]; 5160 nM in test [3]; 780 nM in test [4]; 830 nM in test [5].
Consider `COc1cc2c(Oc3ccc(NC(=O)c4c(Cl)c5ccccc5n(-c5ccccc5OC(F)(F)F)c4=O)cc3F)ccnc2cc1OCCCN1CCCC1`, for which the IC50 in [1] worked out at 1500 nM; in [2], 360 nM; in [4], 1400 nM.
For the molecule `COc1cc2c(Oc3ccc(NC(=O)c4c(Cl)c5ccccc5n(-c5ccccc5)c4=O)cc3F)ccnc2cc1OCCCN1CCCC1`, the IC50 in test [1] amounted to 390 nM; in [2], 210 nM; in test [3] it was 1600 nM; in [4], 210 nM; in test [5], 810 nM.
Regarding `COc1cc2c(Oc3ccc(NC(=O)c4c(Cl)c5ccccc5n(-c5ccccc5OC)c4=O)cc3F)ccnc2cc1OCCCN1CCOCC1`, the figures for the half-maximal inhibitory concentration (IC50) in [1], in test [2] and in [4] were 1400 nM, 1200 nM and 1260 nM, respectively.
As for `COc1cc2c(Oc3ccc(NC(=O)c4c(Cl)c5ccccc5n(-c5ccc(C)cc5)c4=O)cc3F)ccnc2cc1OCCCN1CCN(C)CC1`, the IC50 in [1] was determined as 150 nM; in test [2], 120 nM; in test [3], 1060 nM; in [4] it was 120 nM; in test [5], 310 nM.
With `COc1cc2c(Oc3ccc(NC(=O)c4c(Cl)c5ccccc5n(-c5ccccc5F)c4=O)cc3F)ccnc2cc1OCCCN1CCN(C)CC1`, the IC50 was 170 nM in [1]; 270 nM in test [2]; 1320 nM in [3]; 410 nM in [4]; 290 nM in test [5].
Regarding `COc1cc2c(Oc3ccc(NC(=O)c4c(Cl)c5ccccc5n(-c5ccc(F)cc5)c4=O)cc3F)ccnc2cc1OCCCN1CCCC1`, the IC50 was 150 nM in test [1]; 120 nM in test [2]; 640 nM in test [3]; 570 nM in test [4]; 12.5 nM in [6]; 720 nM in [5].
Consider `COc1cc2c(Oc3ccc(NC(=O)c4c(Cl)c5ccccc5n(-c5ccccc5)c4=O)cc3F)ccnc2cc1OCCCN1CCCCC1`, for which the IC50 in test [1] is 41600 nM; in test [2], 140 nM; in test [3], 1300 nM; in [4], 280 nM; in test [6], 18.4 nM; in [5] it was 510 nM.
Take `COc1cc2c(Oc3ccc(NC(=O)c4c(Cl)c5ccccc5n(-c5ccccc5)c4=O)cc3F)ccnc2cc1OCCCN1CCC(C)CC1`: the IC50 is 350 nM in test [1]; 150 nM in test [2]; 1420 nM in test [3]; 460 nM in [4]; 6.84 nM in test [6]; 390 nM in test [5].
As for `COc1cc2c(Oc3ccc(NC(=O)c4c(Cl)c5ccccc5n(-c5ccc(F)cc5)c4=O)cc3F)ccnc2cc1OCCCN1CCN(C)CC1`, the IC50 in [7] is 2.15 nM; in test [1], 68 nM; in test [9] it was 526 nM; in [2], 31 nM; in [10] it was more than 100000 nM; in test [3], 520 nM. Further, the IC50 was determined as 543 nM in test [11]; 160 nM in [4]; 363 nM in test [12]; 1.21 nM in test [6]; 110 nM in [5]. In addition, the “Ratio IC50” value in [8] came out at 2.1; in [13], 6.1; in [14], 2.4.
On to `COc1cc2c(Oc3ccc(NC(=O)c4c(Cl)c5ccccc5n(-c5ccccc5)c4=O)cc3F)ccnc2cc1OCCCN1CCOCC1`, for which the half-inhibitory concentration (IC50) in [1] came out at 460 nM; in test [2] it was 260 nM; in [3], 4800 nM; in test [4], 310 nM; in test [5], 930 nM.
Turning to `COc1cc2c(Oc3ccc(NC(=O)c4c(Cl)c5ccccc5n(-c5ccc(F)cc5)c4=O)cc3F)ccnc2cc1OCCCN1CCOCC1`, the 50% inhibitory concentration (IC50) in test [1] came out at 140 nM; in test [2], 61 nM; in [3], 8500 nM; in test [4], 210 nM; in test [6], 5.32 nM; in [5], 110 nM.
As for `COc1cc2c(Oc3ccc(NC(=O)c4c(Cl)c5ccccc5n(-c5ccc(C)cc5)c4=O)cc3F)ccnc2cc1OCCCN1CCC(C)CC1`, the half-maximal inhibitory concentration (IC50) stood at 190 nM in [1]; 180 nM in [2]; 3200 nM in [3]; 120 nM in test [4]; 350 nM in test [5].
Regarding `COc1cc2c(Oc3ccc(NC(=O)c4c(Cl)c5ccccc5n(-c5ccc(F)cc5)c4=O)cc3F)ccnc2cc1OCCCN1CCCCC1`, the IC50 in [1] was 290 nM; in test [2], 110 nM; in test [3] it was 1600 nM; in test [4] it was 310 nM; in test [6], 12.2 nM; in test [5], 160 nM.
Regarding `COc1cc2c(Oc3ccc(NC(=O)c4c(Cl)c5ccccc5n(-c5ccccc5OC)c4=O)cc3F)ccnc2cc1OCCCN1CCCCC1`, the IC50 in [1] came to 12600 nM; in test [2], 580 nM; in [4] it was 420 nM.
As for `COc1cc2c(Oc3ccc(NC(=O)c4c(Cl)c5ccccc5n(-c5ccccc5OC)c4=O)cc3F)ccnc2cc1OCCCN1CCN(C)CC1`, the IC50 turned out to be 530 nM in test [1], 150 nM in test [2] and 120 nM in test [4].
As for `COc1cc2c(Oc3ccc(NC(=O)c4c(Cl)c5ccccc5n(-c5ccccc5OC(F)(F)F)c4=O)cc3F)ccnc2cc1OCCCN1CCC(C)CC1`, the IC50 is 570 nM in test [1], 380 nM in [2] and 310 nM in [4].
Consider `COc1cc2c(Oc3ccc(NC(=O)c4c(Cl)c5ccccc5n(-c5ccc(C)cc5)c4=O)cc3F)ccnc2cc1OCCCN1CCCC1`, for which the half-maximal inhibitory concentration (IC50) turned out to be 480 nM in [1]; 230 nM in test [2]; 3240 nM in test [3]; 900 nM in test [4]; 230 nM in test [5].
For `COc1cc2c(Oc3ccc(NC(=O)c4c(Cl)c5ccccc5n(-c5ccc(F)cc5)c4=O)cc3F)ccnc2cc1OCCCN1CCC(C)CC1`, the IC50 stood at 110 nM in test [1]; 89 nM in test [2]; 1920 nM in test [3]; 160 nM in test [4]; 3.26 nM in test [6]; 990 nM in [5].
As for `COc1cc2c(Oc3ccc(NC(=O)c4c(Cl)c5ccccc5n(-c5ccccc5)c4=O)cc3F)ccnc2cc1OCCCN1CCN(C)CC1`, the IC50 in test [1] turned out to be 91 nM; in test [2], 61 nM; in [4], 120 nM; in test [6], 1.75 nM.
On to `COc1cc2c(Oc3ccc(NC(=O)c4c(Cl)c5ccccc5n(-c5ccccc5F)c4=O)cc3F)ccnc2cc1OCCCN1CCOCC1`, for which the IC50 in test [1] was 1210 nM; in [2] it was 580 nM; in test [4], 740 nM.
The like results for `COc1cc2c(Oc3ccc(NC(=O)c4c(Cl)c5ccccc5n(-c5ccc(C)cc5)c4=O)cc3F)ccnc2cc1OCCCN1CCCCC1` were, in that order, 520 nM, 170 nM and 480 nM.
`COc1cc2c(Oc3ccc(NC(=O)c4c(Cl)c5ccccc5n(-c5cc(C)cc(C)c5)c4=O)cc3F)ccnc2cc1OCCCN1CCCC1`: the values for the half-maximal inhibitory concentration (IC50) in test [1], in test [2] and in test [4] were 300 nM, 620 nM and 1200 nM, respectively.
